Values of other authors in patent US20100069398A1, “Combination therapy” (priority 2004, published 2010).

System: tumour models
Details: once-daily oral administration, range of models

For `COc1cc2c(Nc3ccc(Br)cc3F)ncnc2cc1OCC1CCN(C)CC1` [ZD6474, 4-(4-bromo-2-fluoroanilino)-6-methoxy-7-(1-methylpiperidin-4-ylmethoxy)quinazoline], which anti-tumour activity is on record?
Its anti-tumour activity is “broad-spectrum anti-tumour activity”.
